From patent publication US8461120B2, “Macrocyclic compounds pounds and methods of use thereof” (Synovo GmbH, priority 2004, dated 2013)

Tests used:
Type in all cases: cell-based
IFNg = experiment: Suppression of pro-inflammatory responses in isolated cells: IFNg; details: for activity at 8 µM: read-out: IFNg (% control) at 8 μM
NO = experiment: Suppression of pro-inflammatory responses in isolated cells: NO; details: for activity at 8 µM: read-out: NO (% control) at 8 μM; for Potency in NO suppression vs. Dexamethasone: relative to Dexamethasone
KC = experiment: LPS-stimulated mouse whole blood, production of the chemotactic cytokine KC (bioplex); details: Neutrophil, 1.5 h; fresh mouse whole blood stimulated by LPS, incubated 90 minutes; read-out: EC50 of modulation of the neutrophil migration factor KC
Experimental: FIG. 2. is a graph showing the response of murine blood cells to varying concentrations of a compound of the invention (see Example 31) based on the production of the chemotactic cytokine “KC”. Fresh mouse whole blood was stimulated by LPS and incubated for 90 minutes. KC was quantified by bioplex.

Row | Compound | activity at 8 µM (IFNg) [%] | activity at 8 µM (NO) [%] | Potency in NO suppression vs. Dexamethasone (NO) | further results
1 | C[C@@H]1C[C@H]2[C@@H]3CCC4=CC(=O)C=C[C@]4(C)[C@@]3(F)[C@@H](O)C[C@]2(C)[C@@]1(O)C(=O)CO [Dexamethasone, reference compound] | 4.3 | 3.4 |  | 
2 | CC[C@H]1OC(=O)[C@H](C)[C@@H](O[C@H]2C[C@@](C)(OC)[C@@H](O)[C@H](C)O2)[C@H](C)[C@@H](O[C@@H]2O[C@H](C)CC(N(C)CC(O)CNCCCCN)[C@H]2O)[C@](C)(O)C[C@@H](C)CN(C)[C@H](C)[C@@H](O)[C@]1(C)O (stereo partly shown) [Example 29] |  |  | 0.6 | 
3 | CCCCCCCCNCC(O)CN(C)C1C[C@@H](C)O[C@@H](O[C@@H]2[C@@H](C)[C@H](O[C@H]3C[C@@](C)(OC)[C@@H](O)[C@H](C)O3)[C@@H](C)C(=O)O[C@H](CC)[C@@](C)(O)[C@H](O)[C@@H](C)N(C)C[C@H](C)C[C@@]2(C)O)[C@@H]1O (stereo partly shown) [Example 31] | 4.4 | 4.7 |  | EC50 (KC): ~0.1 µM
4 | CCCCCNCC(O)CN(C)C1C[C@@H](C)O[C@@H](O[C@@H]2[C@@H](C)[C@H](O[C@H]3C[C@@](C)(OC)[C@@H](O)[C@H](C)O3)[C@@H](C)C(=O)O[C@H](CC)[C@@](C)(O)[C@H](O)[C@@H](C)N(C)C[C@H](C)C[C@@]2(C)O)[C@@H]1O (stereo partly shown) [Example 32] | 3.7 | 6.8 |  | 
5 | CCCCC(CC)CNCC(O)CN(C)C1C[C@@H](C)O[C@@H](O[C@@H]2[C@@H](C)[C@H](O[C@H]3C[C@@](C)(OC)[C@@H](O)[C@H](C)O3)[C@@H](C)C(=O)O[C@H](CC)[C@@](C)(O)[C@H](O)[C@@H](C)N(C)C[C@H](C)C[C@@]2(C)O)[C@@H]1O (stereo partly shown) [Example 33] | 3.8 | 3.2 |  | 
6 | CC[C@H]1OC(=O)[C@H](C)[C@@H](O[C@H]2C[C@@](C)(OC)[C@@H](O)[C@H](C)O2)[C@H](C)[C@@H](O[C@@H]2O[C@H](C)CC(N(C)CC(O)CNCC(OC)OC)[C@H]2O)[C@](C)(O)C[C@@H](C)CN(C)[C@H](C)[C@@H](O)[C@]1(C)O (stereo partly shown) [Example 35] |  |  | 0.5 | 
7 | CC[C@H]1OC(=O)[C@H](C)[C@@H](O[C@H]2C[C@@](C)(OC)[C@@H](O)[C@H](C)O2)[C@H](C)[C@@H](O[C@@H]2O[C@H](C)CC(N(C)CC(O)CNc3ncc(C)s3)[C@H]2O)[C@](C)(O)C[C@@H](C)CN(C)[C@H](C)[C@@H](O)[C@]1(C)O (stereo partly shown) [Example 41] |  |  | 0.5 | 
8 | CC[C@H]1OC(=O)[C@H](C)[C@@H](O[C@H]2C[C@@](C)(OC)[C@@H](O)[C@H](C)O2)[C@H](C)[C@@H](O[C@@H]2O[C@H](C)CC(N(C)CC(O)CNc3cc(C)ccn3)[C@H]2O)[C@](C)(O)C[C@@H](C)CN(C)[C@H](C)[C@@H](O)[C@]1(C)O (stereo partly shown) [Example 42] |  |  | 0.8 | 
9 | CC[C@H]1OC(=O)[C@H](C)[C@@H](O[C@H]2C[C@@](C)(OC)[C@@H](O)[C@H](C)O2)[C@H](C)[C@@H](O[C@@H]2O[C@H](C)CC(N(C)CC(O)CN3CCC(O)CC3)[C@H]2O)[C@](C)(O)C[C@@H](C)CN(C)[C@H](C)[C@@H](O)[C@]1(C)O (stereo partly shown) [Example 47] |  |  | 0.5 | 
10 | CCCCN(CCCC)CCCNCC(O)CN(C)C1C[C@@H](C)O[C@@H](O[C@@H]2[C@@H](C)[C@H](O[C@H]3C[C@@](C)(OC)[C@@H](O)[C@H](C)O3)[C@@H](C)C(=O)O[C@H](CC)[C@@](C)(O)[C@H](O)[C@@H](C)N(C)C[C@H](C)C[C@@]2(C)O)[C@@H]1O (stereo partly shown) [Example 49] | 4.3 | 48.2 |  | 
11 | CCCN(CCO)CC(O)CN(C)C1C[C@@H](C)O[C@@H](O[C@@H]2[C@@H](C)[C@H](O[C@H]3C[C@@](C)(OC)[C@@H](O)[C@H](C)O3)[C@@H](C)C(=O)O[C@H](CC)[C@@](C)(O)[C@H](O)[C@@H](C)N(C)C[C@H](C)C[C@@]2(C)O)[C@@H]1O (stereo partly shown) [Example 50] | 4 | 3.9 |  | 
12 | CC[C@H]1OC(=O)[C@H](C)[C@@H](O[C@H]2C[C@@](C)(OC)[C@@H](O)[C@H](C)O2)[C@H](C)[C@@H](O[C@@H]2O[C@H](C)CC(N(C)CC(O)CN3CCN(C=O)CC3)[C@H]2O)[C@](C)(O)C[C@@H](C)CN(C)[C@H](C)[C@@H](O)[C@]1(C)O (stereo partly shown) [Example 56] |  |  | 0.6 | 
13 | CC[C@H]1OC(=O)[C@H](C)[C@@H](O[C@H]2C[C@@](C)(OC)[C@@H](O)[C@H](C)O2)[C@H](C)[C@@H](O[C@@H]2O[C@H](C)CC(N(C)CC(O)COc3cccc(O)c3)[C@H]2O)[C@](C)(O)C[C@@H](C)CN(C)[C@H](C)[C@@H](O)[C@]1(C)O (stereo partly shown) [Example 59] | 96.9 | 99.2 |  | 
14 | CC[C@H]1OC(=O)[C@H](C)[C@@H](O[C@H]2C[C@@](C)(OC)[C@@H](O)[C@H](C)O2)[C@H](C)[C@@H](O[C@@H]2O[C@H](C)CC(N(C)CC(O)COc3ccc(OC)cc3)[C@H]2O)[C@](C)(O)C[C@@H](C)CN(C)[C@H](C)[C@@H](O)[C@]1(C)O (stereo partly shown) [Example 60] | 5.7 | 33.7 |  | 
15 | CC[C@H]1OC(=O)[C@H](C)[C@@H](O[C@H]2C[C@@](C)(OC)[C@@H](O)[C@H](C)O2)[C@H](C)[C@@H](O[C@@H]2O[C@H](C)CC(N(C)CC(O)COc3ccc(B(O)O)cc3)[C@H]2O)[C@](C)(O)C[C@@H](C)CN(C)[C@H](C)[C@@H](O)[C@]1(C)O (stereo partly shown) [Example 61] | 15.6 | 74.2 |  | 
16 | CC[C@H]1OC(=O)[C@H](C)[C@@H](O[C@H]2C[C@@](C)(OC)[C@@H](O)[C@H](C)O2)[C@H](C)[C@@H](O[C@@H]2O[C@H](C)CC(N(C)CC(O)COc3ccc(C(=O)OC)cc3)[C@H]2O)[C@](C)(O)C[C@@H](C)CN(C)[C@H](C)[C@@H](O)[C@]1(C)O (stereo partly shown) [Example 62] | 5.3 | 63.4 |  | 
17 | CC[C@H]1OC(=O)[C@H](C)[C@@H](O[C@H]2C[C@@](C)(OC)[C@@H](O)[C@H](C)O2)[C@H](C)[C@@H](O[C@@H]2O[C@H](C)CC(N(C)CC(O)COC(=O)CNC(=O)OC(C)(C)C)[C@H]2O)[C@](C)(O)C[C@@H](C)CN(C)[C@H](C)[C@@H](O)[C@]1(C)O (stereo partly shown) [Example 63] | 4.4 | 3.9 |  | 
18 | CC[C@H]1OC(=O)[C@H](C)[C@@H](O[C@H]2C[C@@](C)(OC)[C@@H](O)[C@H](C)O2)[C@H](C)[C@@H](O[C@@H]2O[C@H](C)CC(N(C)CC(O)COC(=O)c3nccc4ccccc34)[C@H]2O)[C@](C)(O)C[C@@H](C)CN(C)[C@H](C)[C@@H](O)[C@]1(C)O (stereo partly shown) [Example 65] | 30.9 | 77.6 |  | 
19 | CCC1OC(=O)C(C)C(OC2CC(C)(OC)C(O)C(C)O2)C(C)C(OC2OC(C)CC(N(C)CC3CO3)C2O)C(C)(O)CC(C)C(=O)C(C)C(O)C1(C)O (stereo not shown) [Example 67, 3′-N-demethyl-3′-N-(oxiranylmethyl)erythromycin] |  |  |  | IFNg (% control) at 8 μM (IFNg): 6.0 % control; NO (% control) at 8 μM (NO): 70.0 % control
20 | CC[C@H]1OC(=O)[C@H](C)[C@@H](OC2C[C@@](C)(OC)[C@@H](O)[C@H](C)O2)C[C@@H](OC2O[C@H](C)C[C@H](N(C)CC(O)CNc3ncc(C)s3)[C@H]2O)[C@](C)(O)C[C@@H](C)C(=O)[C@H](C)[C@@H](O)[C@]1(C)O (stereo partly shown) [Example 68] | 4.3 | 2.9 |  | 
21 | CC[C@H]1OC(=O)[C@H](C)C2(O)O[C@@](C)(C[C@@H](C)CN(C)[C@H](C)[C@@H](O)[C@]1(C)O)[C@H](O[C@@H]1O[C@H](C)CC(N(C)CC(O)COC(=O)c3cnc4ccccc4c3)C1O)[C@H]2C (stereo partly shown) [Example 75] | 88.8 | 96.8 |  | 
22 | CC[C@H]1OC(=O)[C@H](C)[C@@H](OC2CC(C)(OC)C(O)C(C)O2)[C@H](C)[C@@H](OC2OC(C)CC(NC)C2O)C(C)(O)C[C@@H](C)C(=O)[C@H](C)[C@@H](O)C1(C)O (stereo partly shown) [desmethyl erythromycin, reference compound] |  |  |  | IFNg (% control) at 8 μM (IFNg): 6.3 % control; NO (% control) at 8 μM (NO): 37.1 % control
23 | descladinosyltetraacetal azithromycin |  |  | 0.6 | 
